Patent US11266640B2, “Polycyclic compound acting as IDO inhibitor and/or IDO-HDAC dual inhibitor” (Hangzhou Innogate Pharma Co., Ltd., priority 2017, dated 2022)

Target: T1, IDO (Homo sapiens, UniProt P14902)
T1 construct: endogenous in cells; host or cells: HeLa cells treated with IFNγ
Assay: Hela cell-based IDO inhibitory activity test (IFNγ added)
Details: Hela cells with IFNγ, 48 hours incubation, OD 480 nm
Description: 2. Hela Cell-Based IDO Inhibitory Activity Test Method
The first step: cell plating. Prepare complete medium and mix well. Cell lines that are in good growth state are selected. Remove the cell culture flask from the incubator and check the cell name, media type and cell generation number on the bottle. The medium was discarded, digested with trypsin, and after digestion, the cells were neutralized with serum-containing medium, and the cells were blown to cause the cells to fall off. Pipette the cell suspension into a centrifuge tube and centrifuge at a speed of 800-1000 for 3-5 minutes. Aspirate the cell supernatant from the centrifuge tube. Add an appropriate volume of medium to the tube and gently blister to resuspend the cells. Count using a Vi-Cell XR cytometer. Adjust the cell suspension to the appropriate concentration. The cell suspension was added to a white-well 96-well plate at 80 μl/well according to the schematic below. The second step: preparation and addition of the compound. Compounds were formulated in DMSO at 600 μM and the compounds were diluted in DMSO according to a multiple of the following table to give 6 concentration gradients of the compound. The 200× compound prepared in DMSO was formulated into a 10× dilution solution in proportion to the corresponding cell culture medium. After 24 hours of cell seeding, 10 μL of 10× corresponding compound dilution and 10 μL of 10×IFNγ were added to each well. Incubate for 48 hours in a 37° C. incubator. The third step: detection and analysis. Cell morphology was observed under an inverted microscope. 80 μL of the supernatant was added to a 3894 plate, 10 μL of 6.1 N trichloroacetic acid was added to each well, shaken for 2 minutes, and placed in a 50-degree incubator for 30 minutes. Centrifuge, 2500 rpm for 10 minutes.
Take 70 μL of the supernatant and transfer to a 3635 UV plate, add 70 μL of the reaction solution, and shake for 2 minutes to make the reaction uniform. Use EnSpire (PE) to detect data with an OD of 480 nm. The cell culture plate 3903 was allowed to stand at room temperature for 30 minutes. 100 μL/well of the cell activity detecting reagent was added to the culture plate. Mix on a shaker for 2 minutes to induce cell lysis. The 96-well plate was allowed to stand at room temperature for 10 minutes to stabilize the luminescence signal. Paste the white base film on the bottom of the plate and tested with Flexstation3 plate (the relevant setting is: Illumination, integration time 500 ms). Record the experimental results obtained from the analysis.
The IC50 value is expressed in the following manner: […]

T1 sequence (P14902 whole entry): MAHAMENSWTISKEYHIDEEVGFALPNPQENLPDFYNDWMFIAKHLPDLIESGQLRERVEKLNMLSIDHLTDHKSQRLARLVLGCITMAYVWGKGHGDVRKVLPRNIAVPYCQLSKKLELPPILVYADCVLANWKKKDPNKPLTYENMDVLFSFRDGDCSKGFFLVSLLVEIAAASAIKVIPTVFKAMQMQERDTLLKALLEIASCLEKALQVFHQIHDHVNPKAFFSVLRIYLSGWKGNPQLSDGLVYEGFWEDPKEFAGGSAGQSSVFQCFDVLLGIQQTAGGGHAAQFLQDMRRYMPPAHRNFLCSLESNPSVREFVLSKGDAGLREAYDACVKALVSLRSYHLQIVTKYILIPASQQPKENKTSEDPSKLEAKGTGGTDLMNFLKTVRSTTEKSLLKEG

SMILES | IC50
C#Cc1ccc(NC(=O)C[C@@H]2C[C@H]3CC(c4ccnc5ccc(F)cc45)C[C@H]3C2)cc1 (some centres unmarked) [Compound 20] | ≤ 5 nM
CC(C(=O)Nc1ccc(C(F)(F)F)cn1)[C@H]1C[C@H]2C[C@@H](c3ccnc4ccc(F)cc34)C[C@H]2C1 (some centres unmarked) [Compound 81] | 5 to 25 nM
O=C(Nc1ccc(Cl)cn1)C1C[C@@H]2C[C@H](c3ccnc4ccc(F)cc34)C[C@@H]2C1 (single isomer, unassigned) [Compound 107] | > 100 nM
N#Cc1ccc(NC(=O)C[C@@H]2C[C@@H]3C[C@H](c4ccnc5ccc(F)cc45)C[C@@H]3C2)cn1 [Compound 102] | ≤ 5 nM
CC#Cc1ccc(NC(=O)C(C)[C@H]2C[C@H]3C[C@@H](c4ccnc5ccc(F)cc45)C[C@H]3C2)nc1 (some centres unmarked) [Compound 82] | > 100 nM
N#Cc1ccc(NC(=O)C[C@@H]2C[C@@H]3CC(c4ccnc5ccc(F)cc45)=C[C@@H]3C2)cn1 (relative stereo) [Compound 101] | 5 to 25 nM
O=C(C[C@H]1C[C@H]2CC(c3ccnc4ccc(F)cc34)C[C@H]2C1)Nc1ccc2c(c1)OC(F)(F)O2 (some centres unmarked) [Compound 16] | > 100 nM
CC(C(=O)Nc1ccc(C(F)(F)F)nc1)[C@H]1C[C@H]2C[C@@H](c3ccnc4ccc(F)cc34)C[C@H]2C1 (some centres unmarked) [Compound 80] | ≤ 5 nM
C#Cc1ccc(NC(=O)C[C@H]2C[C@@H]3CC(c4ccnc5ccc(F)cc45)=C[C@@H]3C2)nc1 [Compound 65] | 5 to 25 nM
Cn1nc(C2=C[C@@H]3C[C@H](CC(=O)Nc4ccc(Cl)cc4)C[C@@H]3C2)c2ccccc21 [Compound 55] | > 100 nM
CC(C(=O)Nc1cnc(N)nc1)[C@H]1C[C@H]2C[C@@H](c3ccnc4ccc(F)cc34)C[C@H]2C1 (some centres unmarked) [Compound 30] | > 100 nM
C#Cc1ccc(NC(=O)C2([C@H]3C[C@H]4C[C@@H](c5ccnc6ccc(F)cc56)C[C@H]4C3)CC2)cn1 [Compound 97] | 5 to 25 nM
N#Cc1ccc(NC(=O)C[C@H]2C[C@@H]3C[C@H](c4ccnc5ccc(F)cc45)C[C@@H]3C2)cn1 [Compound 71] | 5 to 25 nM
C#Cc1ccc(NC(=O)C[C@@H]2C[C@@H]3C[C@H](c4ccnc5ccc(F)cc45)C[C@@H]3C2)cn1 [Compound 66] | ≤ 5 nM
CC(C(=O)Nc1ccc(C#CC(C)(C)O)cn1)[C@H]1C[C@H]2C[C@@H](c3ccnc4ccc(F)cc34)C[C@H]2C1 (some centres unmarked) [Compound 77] | ≤ 5 nM
O=C(C[C@@H]1C[C@@H]2C[C@H](c3ccnc4ccc(F)cc34)C[C@@H]2C1)Nc1ccc2c(c1)OCC1COCCN21 (some centres unmarked) [Compound 13] | > 100 nM
O=C(C[C@@H]1C[C@H]2CC(c3ccnc4ccc(F)cc34)C[C@H]2C1)Nc1ccc(Cl)cn1 (some centres unmarked) [Compound 21] | 5 to 25 nM
O=C(C[C@H]1C[C@@H]2CC(c3ccncc3F)=C[C@@H]2C1)Nc1ccc(Cl)cc1 [Compound 54] | > 100 nM
C#Cc1ccc(NC(=O)C[C@@H]2C[C@@H]3CC(c4ccnc5ccc(F)cc45)=C[C@@H]3C2)cn1 [Compound 64] | ≤ 5 nM

SMILES | IC50
CC(C(=O)Nc1ccc(Cl)nc1)[C@H]1C[C@]2(C)C[C@H](c3ccnc4ccc(F)cc34)C[C@]2(C)C1 (some centres unmarked) [Compound 43] | 25 to 100 nM
O=C(C[C@@H]1C[C@@H]2C[C@@H](N3CCCc4ccccc43)C[C@@H]2C1)Nc1ccc(Cl)cc1 [Compound 52] | > 100 nM
CC(C(=O)NC1CCOCC1)[C@H]1C[C@H]2C[C@@H](c3ccnc4ccc(F)cc34)C[C@H]2C1 (some centres unmarked) [Compound 3] | > 100 nM
C#Cc1ccc(NC(=O)C[C@@H]2C[C@H]3CC(c4ccnc5ccc(F)cc45)C[C@H]3C2)nc1 (some centres unmarked) [Compound 25] | ≤ 5 nM
N#Cc1ccc(NC(=O)C[C@@H]2C[C@@H]3CC(c4ccnc5ccc(F)cc45)=C[C@@H]3C2)nc1 (racemic) [Compound 69] | ≤ 5 nM
C#Cc1ccc(NC(=O)C[C@@H]2C[C@@H]3CC(c4ccnc5ccc(F)cc45)=C[C@@H]3C2)nc1 [Compound 63] | ≤ 5 nM
O=C(Nc1ccc(Cl)cn1)C1C[C@@H]2C[C@H](c3ccnc4ccc(F)cc34)C[C@@H]2C1 (single isomer, unassigned) [Compound 108] | 5 to 25 nM
CC(C)(O)C#Cc1ccc(NC(=O)C[C@@H]2C[C@H]3CC(c4ccnc5ccc(F)cc45)C[C@H]3C2)nc1 (some centres unmarked) [Compound 103] | > 100 nM
O=C(C[C@@H]1C[C@@H]2CC(c3ccnc4ccc(F)cc34)=C[C@@H]2C1)Nc1ccc(Cl)cn1 [Compound 61] | 5 to 25 nM
CC(C(=O)Nc1nncs1)[C@H]1C[C@H]2C[C@@H](c3ccnc4ccc(F)cc34)C[C@H]2C1 (some centres unmarked) [Compound 31] | > 100 nM
C#Cc1ccc(NC(=O)C(C)[C@H]2C[C@H]3C[C@@H](c4ccnc5ccc(F)cc45)C[C@H]3C2)cn1 (some centres unmarked) [Compound 37] | ≤ 5 nM
CC(C(=O)Nc1ccc(I)cn1)C1C[C@H]2CC(c3ccnc4ccc(F)cc34)C[C@H]2C1 (some centres unmarked) [Compound 76] | ≤ 5 nM
CC(C(=O)Nc1ccc(C#CC(C)(C)O)cn1)[C@@H]1C[C@H]2C[C@@H](c3ccnc4ccc(F)cc34)C[C@H]2C1 (some centres unmarked) [Compound 78] | 25 to 100 nM
O=C(C[C@H]1C[C@H]2CC(c3ccnc4ccc(F)cc34)C[C@H]2C1)Nc1ccc(Cl)nc1 (some centres unmarked) [Compound 18] | ≤ 5 nM
O=C(C[C@H]1C[C@H]2CC(c3ccnc4ccc(F)cc34)C[C@H]2C1)Nc1ccc2[nH]ncc2c1 (some centres unmarked) [Compound 14] | > 100 nM
N#Cc1ccc(NC(=O)C2([C@H]3C[C@H]4C[C@@H](c5ccnc6ccc(F)cc56)C[C@H]4C3)CC2)nc1 [Compound 98] | ≤ 5 nM
N#Cc1ccc(NC(=O)C[C@H]2C[C@@H]3C[C@H](c4ccnc5ccc(F)cc45)C[C@@H]3C2)nc1 [Compound 70] | ≤ 5 nM
CC(C(=O)Nc1ccc(-c2cnn(C3CC3)c2)nc1)[C@H]1C[C@H]2C[C@@H](c3ccnc4ccc(F)cc34)C[C@H]2C1 (some centres unmarked) [Compound 32] | > 100 nM
C#Cc1ccc(NC(=O)C[C@@H]2C[C@H]3CC(c4ccnc5ccc(F)cc45)C[C@H]3C2)cn1 (some centres unmarked) [Compound 24] | ≤ 5 nM

Continued, values first:

IC50 | SMILES
5 to 25 nM | O=C(Nc1ccc(Cl)cc1)C1CC12CCC(c1ccnc3ccc(F)cc13)CC2 (centres unmarked) [Compound 56]
≤ 5 nM | N#Cc1ccc(NC(=O)C[C@@H]2C[C@H]3CC(c4ccnc5ccc(F)cc45)C[C@H]3C2)cc1 (some centres unmarked) [Compound 23]
> 100 nM | O=C(Nc1ccc(Cl)cc1)N1C[C@H]2C[C@@H](c3ccnc4ccc(F)cc34)C[C@H]2C1 [Compound 48]
5 to 25 nM | CC(C(=O)Nc1ccc(Cl)cn1)N1C[C@H]2C[C@@H](c3ccnc4ccc(F)cc34)C[C@H]2C1 (some centres unmarked) [Compound 99]
5 to 25 nM | CC(C(=O)Nc1ccc(Cl)cc1)[C@H]1C[C@]2(C)C[C@H](c3ccnc4ccc(F)cc34)C[C@]2(C)C1 (some centres unmarked) [Compound 41]
5 to 25 nM | COC(=O)c1ccc(NC(=O)C(C)[C@H]2C[C@H]3C[C@@H](c4ccnc5ccc(F)cc45)C[C@H]3C2)cc1 (some centres unmarked) [Compound 8]
≤ 5 nM | CC(C)(C(=O)Nc1ccc(Cl)cc1)[C@H]1C[C@H]2C[C@@H](c3ccnc4ccc(F)cc34)C[C@H]2C1 [Compound 60]
25 to 100 nM | O=C(CN1C[C@H]2C[C@@H](c3ccnc4ccc(F)cc34)C[C@H]2C1)Nc1ccc(Cl)cc1 [Compound 46]
≤ 5 nM | C[C@@H](C(=O)Nc1ccc(Cl)cn1)[C@H]1C[C@H]2CC(c3ccnc4ccc(F)cc34)C[C@H]2C1 (single isomer, unassigned) [Compound 26A]
≤ 5 nM | C#Cc1ccc(NC(=O)C[C@H]2C[C@H]3CC(c4ccnc5ccc(F)cc45)C[C@H]3C2)cc1 (some centres unmarked) [Compound 19]
≤ 5 nM | CC(C(=O)Nc1ccc(C#N)cc1)[C@H]1C[C@H]2C[C@@H](c3ccnc4ccc(F)cc34)C[C@H]2C1 (some centres unmarked) [Compound 36]
> 100 nM | CC(C(=O)Nc1ccc(O)nc1)[C@H]1C[C@H]2C[C@@H](c3ccnc4ccc(F)cc34)C[C@H]2C1 (some centres unmarked) [Compound 28]
≤ 5 nM | CC(C(=O)Nc1ccc(Cl)cc1)N1C[C@H]2C[C@@H](c3ccnc4ccc(F)cc34)C[C@H]2C1 (some centres unmarked) [Compound 44]
25 to 100 nM | CC(C(=O)Nc1ccc(F)c(Br)c1)[C@H]1C[C@H]2C[C@@H](c3ccnc4ccc(F)cc34)C[C@H]2C1 (some centres unmarked) [Compound 33]
5 to 25 nM | O=C(C[C@@]1(F)C[C@H]2C[C@@H](c3ccnc4ccc(F)cc34)C[C@H]2C1)Nc1ccc(Cl)cc1 [Compound 59]
> 100 nM | O=C(Nc1ccc(Cl)cc1)O[C@@H]1C[C@@H]2C[C@H](c3ccnc4ccc(F)cc34)C[C@@H]2C1 [Compound 106]
5 to 25 nM | O=C(C[C@]1(O)C[C@H]2C[C@@H](c3ccnc4ccc(F)cc34)C[C@H]2C1)Nc1ccc(Cl)cc1 [Compound 58]
25 to 100 nM | O=C(Nc1ccc(Cl)cc1)C(=O)N1C[C@H]2C[C@@H](c3ccnc4ccc(F)cc34)C[C@H]2C1 [Compound 47]
